Source: patent US20220002297A1, “POLYMORPHS OF X842” (Cinclus Pharma AG, priority 2020, published 2022)

Tests used:
[1] = Thermogravimetric analysis (TGA); assay type: physicochemical; details: for degradation of the sample (temperature): 25 to 320° C., 10° C./minute
Method: Analyses were performed on a Mettler Toledo TGA/DSC1 instrument, coupled with a Thermo Nicolet iS10 spectrometer. The sample was flushed with dry nitrogen gas during the analysis. The sample was scanned from 25 to 320° C. with a scan rate of 10° C./minute.
Degradation of the sample occurred at approximately 248° C.
Melting of the sample occurred at approximately 211° C., and degradation of the sample occurred at approximately 251° C.

intragastric acidity = assay type: in vivo, human
Method: (§1) X842 is a prodrug of Linaprazan, which was disclosed in WO 99/55706 and previously studied in Phase I and II studies. […] A clinical Phase I study has shown that administration of a single dose of X842 can maintain the intragastric acidity above pH 4 for 24 hours. X842 is therefore tailored for patients with severe erosive gastroesophageal reflux disease (eGERD).
Following absorption into the blood stream, X842 is quickly metabolized into Linaprazan, which is the active metabolite of X842. Whereas the plasma concentration of X842 is only very low and difficult to determine, the plasma concentration of Linaprazan may be determined instead. […] It is estimated that this requires a minimal plasma concentration (Cmin) of Linaprazan of at least about 240 nmol/L after 22 hours. At such doses, a once daily oral administration of the formulation would be sufficient. Therefore, in another aspect, the invention relates to the pharmaceutical composition as disclosed herein, wherein a unit dose of the composition provides a Cmin of Linaprazan in a human of at least about 240 nmol/L after 22 hours following oral administration of the pharmaceutical composition to said human.

[2] = Half-life in the body, X842 compared to Linaprazan; assay type: in vivo; details: in comparison with Linaprazan
Method: as §1

[3] = Phase I and II studies; cited from earlier work
[4] = Dynamic vapour sorption (DVS) analysis, hygroscopicity; assay type: physicochemical
Method: Analyses were performed on a Surface Measurement Systems DVS Intrinsic instrument. The relative humidity at 25° C. was calibrated against the deliquescense point of LiCL, Mg(NO3)2 and KCl. The sample (about 10-20 mg) was dried with nitrogen gas until a dm/dt below 0.002% per minute was reached. The instrument was running in dm/dt mode using a minimum dm/dt stability duration of 10 minutes and a maximum equilibrium time of 180 minutes. The sample was subjected to a sorption-desorption cycle running from 0 to 95 to 0% RH. One cycle consisted of 20 steps, those between 0 and 90% RH were taken in 10% RH each.
The hygroscopicity of Form A was investigated using DVS at 25° C. The water uptake at 25° C./80% RH was about 0.08%, which means that Form A is non-hygroscopic.

In the case of `Cc1cccc(C)c1CNc1cc(C(=O)NCCOC(=O)CCCC(=O)O)cn2c(C)c(C)nc12` [Form B, 5-{2-[({8-[(2,6-dimethylbenzyl)amino]-2,3-dimethylimidazo[1,2-a]pyridine-6-yl}carbonyl)-amino]ethoxy}-5-oxopentanoic acid], the “degradation of the sample (temperature)” value [1] is reported as “approximately 251 °C” and the weight loss ([1]; in the range of 128-220° C., attributed to loss of isopropyl alcohol) is reported as “approximately 1%”.

In the case of `Cc1cccc(C)c1CNc1cc(C(=O)NCCOC(=O)CCCC(=O)O)cn2c(C)c(C)nc12` [Form X842, 5-{2-[({8-[(2,6-dimethylbenzyl)amino]-2,3-dimethylimidazo[1,2-a]pyridine-6-yl}carbonyl)-amino]ethoxy}-5-oxopentanoic acid], the “time intragastric pH is maintained above 4” value (intragastric acidity; after administration of X842, Phase I) is reported as 24 hours and the “half-life in the body” value [2] is reported as “longer”.

In the case of `Cc1cccc(C)c1CNc1cc(C(=O)NCCO)cn2c(C)c(C)nc12` [Linaprazan], the “minimal plasma concentration (Cmin) of Linaprazan required to maintain intra-gastric pH above 4 for 24 hours” value (intragastric acidity; human, in vivo, po, 22 h) is given as “at least 240 nmol/L”, the “elimination from the body” value [3] is given as “quickly eliminated” and the tolerability [3] is given as “well tolerated”.

With `Cc1cccc(C)c1CNc1cc(C(=O)NCCOC(=O)CCCC(=O)O)cn2c(C)c(C)nc12` [Form A, 5-{2-[({8-[(2,6-dimethylbenzyl)amino]-2,3-dimethylimidazo[1,2-a]pyridine-6-yl}carbonyl)-amino]ethoxy}-5-oxopentanoic acid] the hygroscopicity ([4]; DVS at 25° C.) was “non-hygroscopic”, the water uptake ([4]; DVS, 25° C./80% RH) was “about 0.08%” and the “change of form after DVS (X-ray powder diffractograms before and after)” value ([4]; sorption-desorption cycle 0 to 95 to 0% RH, 25° C.) was “no change of form occurred”. For the same compound, the “degradation of the sample (temperature)” value [1] was “approximately 248 °C” and the “weight loss before melting” value ([1]; before melting at approximately 217° C.) was “did not show any weight loss”.
